Among the data in article PMC12668304, “A Triple Threat Against Ovarian Cancer: Os(II)‐Pt(IV)‐Ceritinib Conjugates for Photodynamic Therapy, Chemotherapy, and Immunogenic Cell Death Induction” (Angewandte Chemie (International Ed. in English), 2025) are IC50 values, retold here.

The assay relates to RPE‐1 cells. Put plainly: (Photo-)cytotoxicity on 2D cell monolayers, resazurin assay. It counts as cell-based. The conditions noted are these: RPE‐1, normoxic, dark, 4 h exposure, total 48 h incubation, read-out: IC50 Dark. On the procedure: The 2D cytotoxicity and phototoxicity profiles of Os‐Pt‐Cer and controls, were evaluated in a panel of cancerous cell lines, including A2780 (ovarian carcinoma), A549 (non‐small cell lung carcinoma), and MCA205 (murine fibrosarcoma), as well as a non‐cancerous retinal pigment epithelial cell line (RPE‐1). Cells were treated with the compounds (0.003–100 µM) for 4 h, either kept in the dark or irradiated at 670 nm (13.5 J cm^− ^2) (Table S4 and Figure S22) or 740 nm (12.6 J cm^− ^2) and viability was assessed 44 h post‐treatment. To verify robustness, the incubation was extended to 72 h. […]
Human ovarian cancer (A2780) cells and mouse fibrosarcoma cells (MCA205) were cultured in RPMI media. Retinal pigment epithelium (RPE -1) cells were cultured in DMEM/F -12 medium. Lung cancer cells (A549) were cultured in F -12K medium. These cell lines were complemented with 10% of fetal bovine serum, 100 U/mL penicillin -streptomycin mixture, and maintained in a humidified atmosphere […]
(Photo-)cytotoxicity on 2D cell monolayers
The cytotoxicity of the compounds was assessed by measuring cell viability using a resazurin assay.
The cells were seeded in triplicates in 96 well plates with a density of 10 4 cells per well in 100 μL of media. After 24 h, the medium was removed, and the cells were treated with increasing concentrations (0.003 → 100 µM) of the compounds diluted in cell media , achieving a total volume of 100 μL/well.
The cells were incubated with the compound for 4 h (final incubation time 48 h) or 24 h (final incubation time 72 h). After this time, the media was removed and replaced with 100 μL of fresh medium. For the phototoxicity studies, the cells were exposed to light with an Atlas Photonics LUMOS BIO irradiation system. Each well was constantly irradiated at 670 nm (60 min, 13.50 J·cm-2) or 740 nm (60 min, 12.60 J·cm-2). During the irradiation, the temperature of the plate was maintained at 37 °C. The cells were grown in the incubator for an additional 44 or 48 h, respectively. For the determination of the dark cytotoxicity, the cells were not irradiated and after the medium exchange directly incubated for 44 h.
After this time, the medium was replaced with fresh medium containing resazurin (0.2 mg/mL). After […]
4 h of incubation, the conversion of resazurin into resorufin was determined upon excitation at 540 nm and measurement of its emission at 590 nm using a Cytation 5 Imaging Reader from BioTek. The obtained data was analysed with the GraphPad Prism software […]
After 24 h of incubation at 37 °C, 5% CO 2, plates were read using a SpectraMaxM2 Microplate Reader ( λexc = 540 nm; λread = 590 nm). Fluorescence data were normalised, and data were fitted using GraphPad Prism Software, and IC 50 was calculated by non - linear regression. Changes in the size and shape of MCTS were monitored every 24 h using Cytation 5 Imaging Reader from BioTek, objective x4.
Intracellular distribution by confocal fluorescence microscopy
10^4 cells/well (A2780 cells) were seeded in complete medium (RPMI) in µ -slide 8 well (Ibidi) (100 µl/well) and left for 24 h to attach to the bottom. Then, the culture medium was removed , and 100 µl of solution of the corresponding complexes (5 µM) was added. The complexes were incubated with the cells for 4 hours. Thereafter, the medium was removed and replaced by RPMI without phenol red , and Hoechst and MitoTracker Green were added at a final concentration of 1 µg/mL. They were incubated with the cells for 30 min in the dark at 37 °C. Images were collected in a sequential mode in a Leica TCS SP8 confocal microscope with a 60x oil immers ion objective, a line average of 4, and a format of […]
(MTG)→ 500 -550nm, and 488 nm (complexes)→ 680 -730 nm. The confocal pinhole was 1 Airy unit.
Images were analysed with LAS X Flim FCS software.
Intracellular distribution by ICP -MS
A general note: Resazurin is reduced to fluorescent resorufin, in cell work by metabolically active cells.

Structures are written as SMILES. Read-outs that look alike come from different tables or passages of the source.

For orientation: IC50 means the point on the concentration scale where inhibition reaches its midpoint. For `Cc1cc(Nc2ncc(Cl)c(Nc3ccccc3S(=O)(=O)C(C)C)n2)c(OC(C)C)cc1C1CCNCC1` [Ceritinib], under “Homo sapiens”, the IC50 was 4.76 ± 0.2 µM.
Regarding `O=C1[O][Pt]2([NH][C@@H]3CCCC[C@H]3[NH]2)[O]C1=O` [Oxaliplatin], the IC50 is over 100 µM.
